Laboratory results reported in PMC4457528, “Identification of Novel Small Molecule Inhibitors of Oncogenic RET Kinase” (PLoS ONE, 2015).
“And” between values parts separate entries of the source, which are not always exact repeats. Equal values may be shown once. Read-outs that look alike come from different tables or passages of the source.

Key:
Assay in all cases: KinomeScan kinase panel, single concentration 10 µM
Assay type in all cases: binding
[1] = molecular target: T1, KinomeScan kinase panel (Homo sapiens, UniProt P00519, M351T); conditions: 10 µM, read-out: score (%)
T1 construct: purchased DiscoveRx (KinomeScan)

[2] = molecular target: T2, KinomeScan kinase panel (Homo sapiens, UniProt O14920); conditions: IKK-beta, 10 µM; read-out: score (%)
T2 construct: purchased DiscoveRx (KinomeScan)
T2 sequence (O14920 1-756): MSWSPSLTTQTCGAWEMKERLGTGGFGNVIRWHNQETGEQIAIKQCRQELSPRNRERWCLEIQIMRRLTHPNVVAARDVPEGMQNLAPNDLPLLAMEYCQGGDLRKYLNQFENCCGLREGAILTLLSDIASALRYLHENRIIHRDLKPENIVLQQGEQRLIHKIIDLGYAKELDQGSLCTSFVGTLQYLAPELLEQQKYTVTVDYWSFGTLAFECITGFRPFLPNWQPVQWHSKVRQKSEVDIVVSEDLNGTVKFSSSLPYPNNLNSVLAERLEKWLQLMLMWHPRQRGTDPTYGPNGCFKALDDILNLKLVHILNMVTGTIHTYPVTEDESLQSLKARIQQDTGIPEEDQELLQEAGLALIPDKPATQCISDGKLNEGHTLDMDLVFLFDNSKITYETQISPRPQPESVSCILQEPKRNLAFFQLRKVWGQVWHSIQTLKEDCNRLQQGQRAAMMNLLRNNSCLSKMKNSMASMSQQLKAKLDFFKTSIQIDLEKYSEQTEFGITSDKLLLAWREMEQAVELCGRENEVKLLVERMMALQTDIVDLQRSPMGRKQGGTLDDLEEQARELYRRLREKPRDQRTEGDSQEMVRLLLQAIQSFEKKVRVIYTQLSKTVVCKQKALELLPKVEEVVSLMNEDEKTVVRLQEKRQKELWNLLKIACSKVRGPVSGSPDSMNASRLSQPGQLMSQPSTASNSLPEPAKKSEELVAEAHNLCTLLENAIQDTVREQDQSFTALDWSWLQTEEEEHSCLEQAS

[3] = molecular target: T3, KinomeScan kinase panel (Homo sapiens, UniProt Q92918); conditions: read-out: score (%)
T3 construct: purchased DiscoveRx (KinomeScan)
T3 sequence (Q92918 whole entry): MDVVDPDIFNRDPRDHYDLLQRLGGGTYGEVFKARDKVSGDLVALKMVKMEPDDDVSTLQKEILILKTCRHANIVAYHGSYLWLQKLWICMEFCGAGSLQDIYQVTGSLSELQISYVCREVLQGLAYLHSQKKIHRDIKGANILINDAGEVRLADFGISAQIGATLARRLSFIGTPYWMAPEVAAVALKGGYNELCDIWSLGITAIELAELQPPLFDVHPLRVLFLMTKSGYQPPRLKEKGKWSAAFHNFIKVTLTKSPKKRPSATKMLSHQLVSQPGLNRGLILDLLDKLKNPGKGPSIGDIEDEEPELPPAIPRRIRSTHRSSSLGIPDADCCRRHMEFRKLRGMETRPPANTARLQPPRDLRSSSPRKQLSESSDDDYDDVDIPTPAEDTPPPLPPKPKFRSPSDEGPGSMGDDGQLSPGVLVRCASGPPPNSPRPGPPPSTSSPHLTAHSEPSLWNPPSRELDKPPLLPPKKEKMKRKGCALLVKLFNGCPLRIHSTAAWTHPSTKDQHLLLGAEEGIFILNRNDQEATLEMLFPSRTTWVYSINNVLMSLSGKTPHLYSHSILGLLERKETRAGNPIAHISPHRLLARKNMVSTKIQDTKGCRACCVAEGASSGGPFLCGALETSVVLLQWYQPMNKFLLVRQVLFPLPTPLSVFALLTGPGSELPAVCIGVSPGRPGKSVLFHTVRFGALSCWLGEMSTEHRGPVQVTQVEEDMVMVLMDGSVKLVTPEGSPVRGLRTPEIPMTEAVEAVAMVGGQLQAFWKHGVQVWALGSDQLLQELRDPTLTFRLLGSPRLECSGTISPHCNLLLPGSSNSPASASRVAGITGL

[4] = test system: KinomeScan kinase panel
[5] = molecular target: T4, KinomeScan kinase panel (Homo sapiens, UniProt P45983); conditions: JNK1, 10 µM
T4 construct: purchased DiscoveRx (KinomeScan)
T4 sequence (P45983 whole entry): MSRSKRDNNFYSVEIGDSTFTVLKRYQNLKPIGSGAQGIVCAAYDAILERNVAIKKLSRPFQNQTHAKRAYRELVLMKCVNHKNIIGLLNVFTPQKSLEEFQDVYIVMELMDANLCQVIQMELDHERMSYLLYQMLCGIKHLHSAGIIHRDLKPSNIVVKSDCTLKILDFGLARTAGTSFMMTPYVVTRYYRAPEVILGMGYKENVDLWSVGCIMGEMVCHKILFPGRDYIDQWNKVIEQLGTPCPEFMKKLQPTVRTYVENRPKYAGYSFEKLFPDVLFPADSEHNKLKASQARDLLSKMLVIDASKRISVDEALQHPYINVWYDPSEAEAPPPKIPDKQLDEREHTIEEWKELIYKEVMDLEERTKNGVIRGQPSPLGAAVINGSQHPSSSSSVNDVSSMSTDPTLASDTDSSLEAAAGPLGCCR

[6] = molecular target: T5, KinomeScan kinase panel (Homo sapiens, UniProt Q8N752); conditions: CSNK1A1L, 10 µM; read-out: score (%)
T5 construct: purchased DiscoveRx (KinomeScan)
T5 sequence (Q8N752 1-337): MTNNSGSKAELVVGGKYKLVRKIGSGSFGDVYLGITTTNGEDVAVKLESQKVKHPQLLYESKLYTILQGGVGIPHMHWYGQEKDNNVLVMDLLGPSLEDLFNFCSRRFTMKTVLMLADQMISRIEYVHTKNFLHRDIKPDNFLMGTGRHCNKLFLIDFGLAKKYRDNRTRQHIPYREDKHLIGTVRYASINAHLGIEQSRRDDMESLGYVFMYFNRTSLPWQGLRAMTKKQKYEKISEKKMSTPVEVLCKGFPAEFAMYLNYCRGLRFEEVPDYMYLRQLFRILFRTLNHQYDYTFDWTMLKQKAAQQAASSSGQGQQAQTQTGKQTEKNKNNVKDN

[7] = molecular target: T6, KinomeScan kinase panel (Homo sapiens, UniProt O95819); conditions: MAP4K4, 10 µM; read-out: score (%)
T6 construct: purchased DiscoveRx (KinomeScan)
T6 sequence (O95819 whole entry): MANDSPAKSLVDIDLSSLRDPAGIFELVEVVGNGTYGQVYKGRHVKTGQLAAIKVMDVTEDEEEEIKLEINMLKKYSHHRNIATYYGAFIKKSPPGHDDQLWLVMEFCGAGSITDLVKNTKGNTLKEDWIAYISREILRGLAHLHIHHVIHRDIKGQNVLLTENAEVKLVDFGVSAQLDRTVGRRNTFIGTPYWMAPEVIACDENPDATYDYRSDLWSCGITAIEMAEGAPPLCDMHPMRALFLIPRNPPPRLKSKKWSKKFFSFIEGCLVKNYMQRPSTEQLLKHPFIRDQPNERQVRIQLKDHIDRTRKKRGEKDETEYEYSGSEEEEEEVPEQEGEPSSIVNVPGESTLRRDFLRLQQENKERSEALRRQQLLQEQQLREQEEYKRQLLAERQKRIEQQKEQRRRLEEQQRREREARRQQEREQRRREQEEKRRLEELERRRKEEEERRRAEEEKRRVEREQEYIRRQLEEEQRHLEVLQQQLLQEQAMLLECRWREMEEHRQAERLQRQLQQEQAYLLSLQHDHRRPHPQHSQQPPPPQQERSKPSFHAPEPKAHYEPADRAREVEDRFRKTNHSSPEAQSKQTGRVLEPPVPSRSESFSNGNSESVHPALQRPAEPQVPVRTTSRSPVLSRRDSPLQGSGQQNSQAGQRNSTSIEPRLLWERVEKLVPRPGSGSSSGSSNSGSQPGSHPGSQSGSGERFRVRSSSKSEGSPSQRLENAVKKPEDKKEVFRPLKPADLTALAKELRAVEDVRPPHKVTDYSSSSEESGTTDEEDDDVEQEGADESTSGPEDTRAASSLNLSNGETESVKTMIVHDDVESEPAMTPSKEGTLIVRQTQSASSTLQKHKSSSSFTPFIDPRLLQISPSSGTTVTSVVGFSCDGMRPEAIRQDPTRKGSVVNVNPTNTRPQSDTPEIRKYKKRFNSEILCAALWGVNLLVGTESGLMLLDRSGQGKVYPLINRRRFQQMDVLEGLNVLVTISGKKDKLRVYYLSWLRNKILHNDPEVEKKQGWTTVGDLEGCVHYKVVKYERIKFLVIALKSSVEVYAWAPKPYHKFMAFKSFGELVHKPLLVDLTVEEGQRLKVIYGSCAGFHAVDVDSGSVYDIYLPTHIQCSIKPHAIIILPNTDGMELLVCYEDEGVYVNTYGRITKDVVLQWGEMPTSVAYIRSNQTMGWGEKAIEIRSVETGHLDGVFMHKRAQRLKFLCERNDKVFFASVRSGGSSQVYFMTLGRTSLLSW

[8] = molecular target: T7, KinomeScan kinase panel (Homo sapiens, UniProt P50613); conditions: CDK7, 10 µM; read-out: score (%)
T7 construct: purchased DiscoveRx (KinomeScan)
T7 sequence (P50613 whole entry): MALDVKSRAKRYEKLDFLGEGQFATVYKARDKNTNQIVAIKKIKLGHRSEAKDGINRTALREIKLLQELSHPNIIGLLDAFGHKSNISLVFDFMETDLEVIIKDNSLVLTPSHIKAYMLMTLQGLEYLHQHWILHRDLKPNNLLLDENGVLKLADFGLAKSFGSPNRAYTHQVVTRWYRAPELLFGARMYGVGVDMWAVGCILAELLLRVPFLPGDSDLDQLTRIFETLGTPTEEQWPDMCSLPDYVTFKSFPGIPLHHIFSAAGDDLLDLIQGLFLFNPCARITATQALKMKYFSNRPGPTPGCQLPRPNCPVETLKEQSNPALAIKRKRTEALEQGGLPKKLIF

[9] = molecular target: T8, KinomeScan kinase panel (Homo sapiens, UniProt P36897); conditions: read-out: score (%)
T8 construct: purchased DiscoveRx (KinomeScan)
T8 sequence (P36897 34-503): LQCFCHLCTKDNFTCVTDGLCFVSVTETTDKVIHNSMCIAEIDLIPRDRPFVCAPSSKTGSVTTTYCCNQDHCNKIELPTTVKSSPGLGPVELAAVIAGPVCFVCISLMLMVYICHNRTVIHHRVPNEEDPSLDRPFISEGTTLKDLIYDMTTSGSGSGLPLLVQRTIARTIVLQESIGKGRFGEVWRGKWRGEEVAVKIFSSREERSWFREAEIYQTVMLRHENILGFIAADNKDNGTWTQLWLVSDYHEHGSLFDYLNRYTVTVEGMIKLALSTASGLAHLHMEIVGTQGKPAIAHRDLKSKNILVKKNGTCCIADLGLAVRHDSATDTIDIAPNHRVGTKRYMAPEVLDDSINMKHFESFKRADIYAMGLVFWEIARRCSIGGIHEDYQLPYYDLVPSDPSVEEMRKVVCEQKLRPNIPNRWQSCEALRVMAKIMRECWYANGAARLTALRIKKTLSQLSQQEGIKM

[10] = molecular target: T9, KinomeScan kinase panel (Homo sapiens, UniProt Q13237); conditions: read-out: score (%)
T9 construct: purchased DiscoveRx (KinomeScan)
T9 sequence (Q13237 1-762): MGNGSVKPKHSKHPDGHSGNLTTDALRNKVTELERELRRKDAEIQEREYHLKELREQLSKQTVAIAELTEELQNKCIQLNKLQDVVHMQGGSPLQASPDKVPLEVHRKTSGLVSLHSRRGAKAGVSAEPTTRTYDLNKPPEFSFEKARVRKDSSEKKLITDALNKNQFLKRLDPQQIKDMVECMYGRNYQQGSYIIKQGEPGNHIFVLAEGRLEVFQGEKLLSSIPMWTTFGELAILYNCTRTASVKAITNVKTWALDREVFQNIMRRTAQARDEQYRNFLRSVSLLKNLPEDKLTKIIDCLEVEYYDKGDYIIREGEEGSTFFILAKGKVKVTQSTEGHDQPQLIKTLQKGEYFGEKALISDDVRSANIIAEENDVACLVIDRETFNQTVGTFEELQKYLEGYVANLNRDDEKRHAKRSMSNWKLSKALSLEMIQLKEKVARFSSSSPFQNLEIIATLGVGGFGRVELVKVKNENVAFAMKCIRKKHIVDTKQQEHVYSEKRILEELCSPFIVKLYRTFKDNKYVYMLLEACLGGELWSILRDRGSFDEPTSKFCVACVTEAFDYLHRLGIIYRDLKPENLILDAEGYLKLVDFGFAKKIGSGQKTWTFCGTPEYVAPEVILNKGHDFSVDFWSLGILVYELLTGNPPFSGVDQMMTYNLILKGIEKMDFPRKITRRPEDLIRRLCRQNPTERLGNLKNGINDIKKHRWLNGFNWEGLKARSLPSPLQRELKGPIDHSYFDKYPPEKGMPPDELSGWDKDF

[11] = EGFR(L747-E749del. A750P), 10 µM
[12] = EGFR(L747-S752del. P753S), 10 µM

remaining binding at 10 µM ([3]; MAP4K1, 10 µM) [%] | remaining binding at 10 µM ([9]; TGFBR1, 10 µM) [%] | SMILES | remaining binding at 10 µM ([1]; ABL1(M351T)) [%] | remaining binding at 10 µM [2] [%] | remaining binding at 10 µM ([3]; HPK1, 10 µM) [%] | score (%) [4] | score (%) ([4]; FLT3(ITD), 10 µM) | score (%) ([4]; kinase TAO1, 10 µM) | score (%) [5] | remaining binding at 10 µM [6] [%] | remaining binding at 10 µM [7] [%] | remaining binding at 10 µM [8] [%] | remaining binding at 10 µM ([9]; kinase TGFBR1, 10 µM) [%] | remaining binding at 10 µM ([10]; PRKG2, 10 µM) [%] | score (%) [4, 11] [%] | score (%) [4, 12] [%] | score (%) ([4]; EGFR(L747-T751del.Sins), 10 µM) | remaining binding at 10 µM ([1]; ABL1(M351T)-phosphorylated) [%] | remaining binding at 10 µM ([10]; kinase PRKG2, 10 µM) [%]
 |  | CCN1CCN(Cc2ccc(NC(=O)c3ccc(C)c(NC(=O)c4cncc(-c5cccs5)c4)c3)cc2C(F)(F)F)CC1 [ALW-II-41-27] | 0.55 | 1.2 | 0.75 | 0.55% and 3% and 1.8% | 0.4 | 12 | nb (Hits values higher than 30% were considered negative (no binding: nb)) | > 30 | 6.4 | 26 | > 30 | > 30 |  |  |  |  | 
0.1 | > 30 | CCN1CCN(Cc2ccc(NC(=O)c3ccc(C)c(/C=C/c4cnc5[nH]ccc5c4Cl)c3)cc2C(F)(F)F)CC1 [HG-6-63-01, (E)-3-(2-(4-chloro-1H-pyrrolo[2,3-b]pyridin-5-yl)vinyl)-N-(4-((4-ethylpiperazin-1-yl)methyl)-3-(trifluoromethyl)phenyl)-4-methylbenzamide] | 0.1 | 5.9 |  |  | 0.1 |  | 6.6% | > 30 | 0.3 | > 30 |  | > 30 | 0 | 0 | 0 |  | 
 |  | CCN1CCN(Cc2ccc(NC(=O)c3ccc(C)c(C#Cc4cccnc4)c3)cc2C(F)(F)F)CC1 [XMD15-44] |  | 0 | 0.4 |  | 0.1 |  | 0.55% | > 30 | 3.3 | 1.6 | 100 |  | 1.2 | 0.9 | 0.45 | 2.6 | 97
